# Measurements from patent US10137072B2, “Methods and compositions for providing broad spectrum photo protection using antioxidants” (L'OREAL, priority 2016, dated 2018).
# Like-named read-outs stand apart in the source and are kept apart here.
# Tested on: human skin keratinocytes and/or fibroblasts
# Test: in vitro ROS probe assay: protection of live skin cells against ROS induced by visible light and infrared radiation
# Format: cell-based
# Design: key to Visible light protection % / IR protection %: Strong: “strong” refers to a percent protection greater than 70%; “Medium” refers to a percent protection less than or equal to 70% but greater than or equal to 40%; “Low” refers to a percent protection less than 40%; Negative: The term “negative” is used when there is no protection
# Conditions: cells pre-treated 24 hours at 10 μg/ml (0.001%), antioxidant removed before exposure; for inhibition at 10 µg/mL: Homo sapiens, light or radiation study
# From the text: A sensitive in vitro ROS (Reactive Oxygen Species) probe was used to evaluate the protective effects of antioxidants on live skin cells against visible light and infrared radiation (IR). Based on a blind screening of 26 compounds, 12 compounds were discovered that efficiently (>40%) decrease the ROS induced by visible light and/or IR radiation on human skin keratinocytes and/or fibroblasts. These compounds (or mixtures of these compounds) provide biological protection for skin cells against visible light and infrared radiation.
# Human cells were pre-treated with and without antioxidants for 24 hours at a very low concentration (10 μg/ml (0.001%)). After incubation for 24 hours, the cells were rinsed and the medium changed in order to remove all the antioxidants before light exposure. The cells were exposed to visible light (100 J/cm^2) and infrared radiation (200 J/cm^2) using Xenon Light Source 300W Monochromatic Light with Filters Max-303 (Asashi Spectra company). After exposure to the visible light and the IR radiation, a new ROS probe was incubated with the cells for one hour to track the in vitro ROS produced. A comfocal microscope and associated software was used to image the fluorescent signals from individual cells and quantify the fluorescence intensity. By comparing with control samples without a pretreatment of antioxidants, it was possible to quantify the protection effect.
# In the table above, “strong” refers to a percent protection greater than 70%, “Medium” refers to a percent protection less than or equal to 70% but greater than or equal to 40%. “Low” refers to a percent protection less than 40%. The term “negative” is used when there is no protection. The protection percentage was defined according to the equation below (wherein the term “AOX” refers to “antioxidant”).
# Since the in vitro tests were done on live human skin cells, kerotinocytes and fibroblasts, and the antioxidants in the cell culture media were removed before light exposure, the results directly predict the biological protection effects of the antioxidants on skin against visible light and infrared radiation.
# [1] = ROS induced by infrared radiation (200 J/cm^2), read-out: IR protection %
# [2] = ROS induced by visible light (100 J/cm^2), read-out: Visible light protection %
# [3] = ROS induced by infrared radiation (200 J/cm^2)
# [4] = ROS induced by visible light (100 J/cm^2)
Compound,inhibition at 10 µg/mL [1],inhibition at 10 µg/mL [2],IR protection % [3],Visible light protection % [4]
"COc1ccc([C@@H]2CC(=O)c3c(O)cc(O)cc3O2)cc1O [Hesperetin, hesperetin]",< 40%,> 70%,–,–
catechin,–,–,Medium (“Medium” refers to a percent protection less than or equal to 70% but greater than or equal to 40%),Strong (“strong” refers to a percent protection greater than 70%)
"O=C(O)[C@H]1O[C@@H](Oc2cc3oc(-c4ccccc4)cc(=O)c3c(O)c2O)[C@H](O)[C@@H](O)[C@@H]1O [Baicalin, baicalin]",40 to 70%,> 70%,–,–
"C[C@@H]1O[C@@H](O[C@H]2C(=O)c3c(O)cc(O)cc3O[C@@H]2c2ccc(O)c(O)c2)[C@H](O)[C@H](O)[C@H]1O [Astilbin, astilbin]",40 to 70%,40 to 70%,–,–
Oc1ccc(C=Cc2cc(O)cc(O)c2)cc1 [Resveratrol],–,< 40%,Negative,–
"COc1cc(/C=C/C(=O)O)ccc1O [Ferulic Acid, ferulic acid]",40 to 70%,40 to 70%,–,–
C=CC(C)(C)c1cc(/C=C/C(=O)c2ccc(O)cc2)c(OC)cc1O [licochalcone A],–,–,–,Negative
"COC1=C(OC)C(=O)C(C/C=C(\C)CC/C=C(\C)CC/C=C(\C)CC/C=C(\C)CC/C=C(\C)CC/C=C(\C)CC/C=C(\C)CC/C=C(\C)CC/C=C(\C)CCC=C(C)C)=C(C)C1=O [Ubiquinone(coQ10), Ubiquinone]",> 70%,–,–,–
NCCC(=O)N[C@@H](Cc1c[nH]cn1)C(=O)O [Carnosin],–,–,Low (“Low” refers to a percent protection less than 40%),Low (“Low” refers to a percent protection less than 40%)
COc1ccc(CCC(=O)c2c(O)cc(O[C@@H]3O[C@H](CO)[C@@H](O)[C@H](O)[C@H]3O[C@@H]3O[C@@H](C)[C@H](O)[C@@H](O)[C@H]3O)cc2O)cc1O [Neohesperidin DHC],–,–,Strong (“strong” refers to a percent protection greater than 70%),Negative
O=C1O[C@H]([C@@H](O)CO)C(O)=C1O [Vit C],–,–,Low (“Low” refers to a percent protection less than 40%),Low (“Low” refers to a percent protection less than 40%)
O=C1N[C@H](C(=O)O)CS1 [Pro-cysteine],< 40%,–,–,Negative
O=C(CCc1ccc(O)cc1)c1c(O)cc(O)cc1O [Phloretin],–,–,–,Negative
CC1=NCC[C@@H](C(=O)O)N1 [Ronacare Ectoin],–,–,Low (“Low” refers to a percent protection less than 40%),Negative
"OC[C@H]1O[C@@H](Oc2cc(O)cc(/C=C/c3ccc(O)cc3)c2)[C@H](O)[C@@H](O)[C@@H]1O [Polydatin, polydatin]",> 70%,> 70%,–,–
